According to patent US20250011292A1, “NOVEL RHODANINE DERIVATIVES AND USES THEREOF” (priority 2021, published 2025):
Where two headings read alike, the source gives them in different places.

Key:
HeLa cells [1] = experiment: Light-induced and dark cytotoxicity, CCK-8 assay, HeLa cells; assay type: cell-based; details: for IC50: 24 hours, mean ± SD; for light-induced (photo-induced) cytotoxicity (in words): with or without blue light irradiation
Description: (§1) HeLa cells and MCF-7 cells were purchased from ATCC (Manassas, VA). HeLa cells were cultured in high glucose DMEM culture medium (Sigma-Aldrich; St. Louis, MO) with glutamine, without sodium pyruvate, and supplemented with 10% fetal bovine serum (FBS) and 1% penicillin and […]. MCF-7 cells were cultured in MEM culture medium (Sigma-Aldrich) supplemented with 10% FBS and 1% penicillin and […]. Cells were incubated in 37° C. incubator with 5% CO2. Under dim light, compounds were dissolved in DMSO to form 20 mM stock solution and serially diluted in 96-well plate with full culture medium to form the working solution with DMSO concentration being 0.5% in all wells. HeLa and MCF-7 cells were seeded in 96-well plate at a density of 10^5/100 μL/well and incubated overnight, and then the culture medium was replaced with 100 μL of the compound-loaded working solution. The dark treatment group was kept in the incubator for 24 hours. The exposure treatment group was allowed to incubate for 30 minutes, followed by exposure with blue light for the designated time (5 min for 0.45 J/cm^2). After exposure, cells were returned to the incubator and incubated for 24 hours. 10 μL CCK-8 solution (Dojindo, Japan) was added to the cells in each well and incubated for 2 hours. The optical density at 450 nm of each well was read with the Perkin-Elmer Vector 3 plate reader (USA). Cells treated with 0.5% DMSO were used as the vehicle control and 100 μL culture medium with 10 μL CCK-8 was used as the blank control. Cell viability was calculated as: […]
(§2) All tests were in triplicate, and the IC50 was calculated with non-linear regression of concentration and cell viability by Graphpad Prism.
BW-PS-101 was incubated with cervical carcinoma HeLa cell line under darkness. After incubation for 30 min to facilitate internalization, cells were exposed to a low-power blue LED array (470 nm, 1.5 mW/cm^2, as described above) for 5 minutes (total irradiation energy 0.45 J/cm^2) and incubated for an additional 24 hours under darkness followed by cell viability determination with CCK-8 assay.

MCF-7 cells = experiment: Light-induced and dark cytotoxicity, CCK-8 assay, MCF-7 cells; assay type: cell-based; details: 24 hours, mean ± SD
Description: FIGS. 3A-3K are graphs showing the dose response of compounds as described herein in MCF-7 cells. […] The cells were treated and allowed the incubate for 24 hours (labeled in the figures as the compound name followed by “DARK”) or were treated, incubated for 30 minutes, exposed to light for a designated time, and then incubated for 24 hours (labeled in the figures as the compound name followed by “EXPO”).
as §1, §2
Additional compounds as described herein were tested. […] Light-induced cytotoxicity was then evaluated. […] PS-107, a compound with the furan ring replaced by phenyl, was synthesized as the structural mimetic control. […] All compounds were also tested against MCF-7 breast cancer cell line, which gave a similar trend of activity (Table 4).

Quantum yield ϕΔ in MeOH = assay type: physicochemical
HeLa cells [2] = experiment: Light-induced and dark cytotoxicity, CCK-8 assay, HeLa cells; assay type: cell-based; details: light energy 1.8 J/cm^2
early endosomes = experiment: Fluorescence microscopy, endosome localization; assay type: cell-based; details: for accumulation / enrichment in endosomes: fluorescence microscopy / imaging studies
Description: FIG. 8 are fluorescence microscopy images of BW-PS-105 (first row), BW-PS-110 (second row), and BW-PS-120 (third row) localized in early endosomes.
The trimethoxy substituted analog BW-PS-105, which was fluorescent with an Ex/Em wavelength of 491 nm/574 nm, was incubated with HeLa cell at a concentration of 1 μM. […] Endosome enrichment of the photosensitizer led to the potency increase of about 5 folds. Targeting photosensitizers to the endosome efficiently induces cancer cell apoptosis by photodynamic therapy.

SARS-CoV-2 = experiment: Inhibition of SARS-CoV-2 replication in infected Huh7 cells; assay type: cell-based; details: read-out: EC50, inhibition of viral replication against SARS-COV-2
Description: FIGS. 1A-1C are graphs showing the inhibition of SARS-CoV-2 replication in Huh-7 cells by BW-PS-108 (FIG. 1A), BW-PS-109 (FIG. 1B), and Compound 136 (FIG. 1C). The top line in FIGS. 1A and 1B represent cytotoxicity. Cell pellets from infected cells were collected at 48 hours after infection and viral RNA levels were measured by RT-PCR.
No solubility issues were encountered when studying their toxicity at 100 μM.
The potency levels of the compounds described herein compare favorably against remdesivir and molnupiravir. […] Further, the potency levels of the compounds described herein were also higher than Compound 136.

[3] = Homo sapiens, HeLa, light or radiation study, blue light, exposure light energy density 0.45 J/cm^2, read-out: Hela cells Exposure IC50
[4] = Homo sapiens, HeLa, dark, read-out: Hela cells Dark IC50
[5] = Homo sapiens, MCF7, light or radiation study, blue light, exposure light energy density 0.45 J/cm^2, read-out: MCF-7 cells Exposure IC50
[6] = Homo sapiens, MCF7, dark, read-out: MCF-7 cells Dark IC50
[7] = viral RNA by RT-PCR 48 hours after infection
[8] = blue light, exposure light energy density 0.45 J/cm^2, read-out: Hela cells Exposure IC50
[9] = dark, read-out: Hela cells Dark IC50
[10] = blue light, exposure light energy density 0.45 J/cm^2, read-out: MCF-7 cells Exposure IC50
[11] = dark, read-out: MCF-7 cells Dark IC50

CCCN1C(=O)/C(=C/c2ccc(-c3ccccc3)o2)SC1=S [BW-PS-101, (Z)-5-((5-phenylfuran-2-yl)methylene)-3-propyl-2-thioxothiazolidin-4-one]
cytotoxicity of cells treated in the dark (in words) (HeLa cells [1]; HeLa, dark, up to 100 μM): did not show any cytotoxicity
IC50 (HeLa cells [1]; [3]): 1380 ± 50 nM
IC50 (HeLa cells [1]; [4]): > 100000 nM
IC50 (MCF-7 cells; [5]): 740 ± 140 nM
IC50 (MCF-7 cells; [6]): > 100000 nM
ϕΔ MeOH) (Quantum yield ϕΔ in MeOH): 0.109
IC50 in the HeLa cell at higher light energy (HeLa cells [2]): submicromolar range

CCCN1C(=O)/C(=C/c2ccc(-c3ccc(F)cc3)o2)SC1=S [BW-PS-102, (Z)-5-((5-(4-fluorophenyl)furan-2-yl)methylene)-3-propyl-2-thioxothiazolidin-4-one]
IC50 (HeLa cells [1]; [3]): 1480 ± 140 nM
IC50 (HeLa cells [1]; [4]): > 100000 nM
light-induced (photo-induced) cytotoxicity (in words) (HeLa cells [1]): comparable activity as BW-PS-101
IC50 (MCF-7 cells; [5]): 1260 ± 4 nM
IC50 (MCF-7 cells; [6]): > 100000 nM
ϕΔ MeOH) (Quantum yield ϕΔ in MeOH): 0.075

CCCN1C(=O)/C(=C/c2ccc(-c3ccc(O)cc3)o2)SC1=S [BW-PS-103, (Z)-5-((5-(4-hydroxyphenyl)furan-2-yl)methylene)-3-propyl-2-thioxothiazolidin-4-one]
IC50 (HeLa cells [1]; [3]): 3580 ± 130 nM
IC50 (HeLa cells [1]; [4]): > 100000 nM
IC50 (MCF-7 cells; [5]): 4250 ± 170 nM
IC50 (MCF-7 cells; [6]): ~100000 nM
ϕΔ MeOH) (Quantum yield ϕΔ in MeOH): 0.007

CCCN1C(=O)/C(=C/c2ccc(-c3ccc(OC)cc3)o2)SC1=S [BW-PS-104, (Z)-5-((5-(4-methoxyphenyl)furan-2-yl)methylene)-3-propyl-2-thioxothiazolidin-4-one]
IC50 (HeLa cells [1]; [3]): 2710 ± 230 nM
IC50 (HeLa cells [1]; [4]): > 100000 nM
IC50 (MCF-7 cells; [5]): 2870 ± 920 nM
IC50 (MCF-7 cells; [6]): > 100000 nM
ϕΔ MeOH) (Quantum yield ϕΔ in MeOH): 0.015

CCCN1C(=O)/C(=C/c2ccc(-c3cc(OC)c(OC)c(OC)c3)o2)SC1=S [BW-PS-105, (Z)-3-propyl-2-thioxo-5-((5-(3,4,5-trimethoxyphenyl)furan-2-yl)methylene)thiazolidin-4-one]
IC50 (HeLa cells [1]; [3]): 2130 ± 300 nM
IC50 (HeLa cells [1]; [4]): > 100000 nM
IC50 (MCF-7 cells; [5]): 2710 ± 780 nM
IC50 (MCF-7 cells; [6]): > 100000 nM
ϕΔ MeOH) (Quantum yield ϕΔ in MeOH): 0.028
accumulation / enrichment in endosomes (early endosomes): accumulation

CCCN1C(=O)/C(=C/c2ccc(-c3ccc(C(F)(F)F)cc3)o2)SC1=S [BW-PS-106, (Z)-3-propyl-2-thioxo-5-((5-(4-(trifluoromethyl)phenyl)furan-2-yl)methylene)thiazolidin-4-one]
IC50 (HeLa cells [1]; [3]): 2960 ± 90 nM
IC50 (HeLa cells [1]; [4]): > 100000 nM
IC50 (MCF-7 cells; [5]): 2580 ± 730 nM
IC50 (MCF-7 cells; [6]): > 100000 nM
ϕΔ MeOH) (Quantum yield ϕΔ in MeOH): 0.182

CCCN1C(=O)/C(=C/c2cccc(-c3ccc(F)cc3)c2)SC1=S [BW-PS-107, (Z)-5-((4′-fluoro-[1,1′-biphenyl]-3-yl)methylene)-3-propyl-2-thioxothiazolidin-4-one]
IC50 (HeLa cells [1]; [3]): > 100000 nM
light-induced (photo-induced) cytotoxicity (in words) (HeLa cells [1]): did not show any photo-induced cytotoxicity
IC50 (MCF-7 cells; [5]): > 100000 nM

O=C1C(=Cc2ccc(-c3ccccc3)o2)SC(=S)N1CCN1CCOCC1 [BW-PS-108]
EC50 (SARS-CoV-2; [7]): 280 nM
IC50 (HeLa cells [1]; [8]): 950 ± 20 nM
IC50 (HeLa cells [1]; [9]): > 100000 nM
IC50 (MCF-7 cells; [10]): 1220 ± 10 nM
IC50 (MCF-7 cells; [11]): > 100000 nM
ϕΔ MeOH) (Quantum yield ϕΔ in MeOH): 0.086

O=C1C(=Cc2ccc(-c3ccc(C(F)(F)F)cc3)o2)SC(=S)N1CCN1CCOCC1 [BW-PS-109]
EC50 (SARS-CoV-2; [7]): 190 nM
IC50 (HeLa cells [1]; [8]): 630 ± 70 nM
IC50 (HeLa cells [1]; [9]): > 100000 nM
IC50 (MCF-7 cells; [10]): 530 ± 90 nM
IC50 (MCF-7 cells; [11]): > 100000 nM
ϕΔ MeOH) (Quantum yield ϕΔ in MeOH): 0.115

COc1cc(-c2ccc(C=C3SC(=S)N(CCN4CCOCC4)C3=O)o2)cc(OC)c1OC [BW-PS-110]
IC50 (HeLa cells [1]; [8]): 1740 ± 160 nM
IC50 (HeLa cells [1]; [9]): > 100000 nM
IC50 (MCF-7 cells; [10]): 1250 ± 170 nM
IC50 (MCF-7 cells; [11]): > 100000 nM
co-localization with the endosome marker CellularLight endosomes-GFP (early endosomes; fluorescence microscopy): good co-localization
accumulation / enrichment in endosomes (early endosomes): accumulation

N.N.[Cl][Pt][Cl] [Cisplatin, cisplatin, reference compound]
IC50 (HeLa cells [1]; [8]): 5950 ± 170 nM
IC50 (HeLa cells [1]; [9]): 7540 ± 450 nM
IC50 (MCF-7 cells; [10]): 13300 ± 1450 nM
IC50 (MCF-7 cells; [11]): 12500 ± 2860 nM

CCC(CC)COC(=O)[C@H](C)N[P@](=O)(OC[C@H]1O[C@@](C#N)(c2ccc3c(N)ncnn23)[C@H](O)[C@@H]1O)Oc1ccccc1 [remdesivir, reference compound]
EC50 (SARS-CoV-2; Severe acute respiratory syndrome coronavirus 2, Huh-7, viral RNA by RT-PCR 48 hours after infection): 700 nM
